This is an account of results in patent publication US9867805B2, “Gelatinase inhibitors and prodrugs” (priority 2010, dated 2018).

Data set [1] is described as follows: Half-life in rat liver microsomes. A general note: Liver microsomes are vesicles of endoplasmic reticulum, rich in cytochrome P450 enzymes.
A short description of data set [2]: Half-life in mouse liver microsomes.
Data set [3] can be described thus: Half-life in human liver microsomes.
In data set [4] the target is T1, human MMP-2 (Homo sapiens, UniProt P08253).
T1 sequence (P08253 110-660): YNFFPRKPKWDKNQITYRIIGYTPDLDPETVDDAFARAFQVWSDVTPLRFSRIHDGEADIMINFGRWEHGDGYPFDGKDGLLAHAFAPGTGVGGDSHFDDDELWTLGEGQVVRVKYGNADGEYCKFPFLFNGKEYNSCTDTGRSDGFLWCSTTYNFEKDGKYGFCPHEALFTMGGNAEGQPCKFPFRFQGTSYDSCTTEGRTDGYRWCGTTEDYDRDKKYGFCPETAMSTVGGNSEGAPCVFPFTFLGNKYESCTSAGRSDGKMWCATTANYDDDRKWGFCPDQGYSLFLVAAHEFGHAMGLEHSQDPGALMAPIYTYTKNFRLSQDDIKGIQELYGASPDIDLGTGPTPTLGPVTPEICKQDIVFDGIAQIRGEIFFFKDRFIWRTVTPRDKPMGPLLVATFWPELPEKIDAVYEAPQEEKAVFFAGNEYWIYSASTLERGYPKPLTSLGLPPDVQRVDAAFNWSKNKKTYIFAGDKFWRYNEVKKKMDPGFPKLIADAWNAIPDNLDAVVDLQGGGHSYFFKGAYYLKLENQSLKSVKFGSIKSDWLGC
The conditions noted are these: read-out: Ki, MMP-2.

Data set [5] has as its target T2, human MMP-9 (Homo sapiens, UniProt P14780). The conditions noted are these: read-out: Ki, MMP-9.
Data set [6] addresses T1, human MMP-2. The experiment in a line: biochemical. The conditions noted are these: for koff: read-out: koff, MMP-2; for kon: read-out: kon, MMP-2.
Data set [7] concerns the target T2, human MMP-9. The experiment in a line: biochemical. The conditions noted are these: for koff: read-out: koff, MMP-9; for kon: read-out: kon, MMP-9.
Data set [8] is described as follows: Half-life in human blood at 37° C. The conditions noted are these: for half-life: human, blood.
The nature of data set [9]: Half-life in human plasma at 37° C. The conditions noted are these: for half-life: human, plasma.
For data set [10], the system named is Ames II mixed strains and strain TA98. The experiment in a line: Ames mutagenicity assay (reverse mutations). The conditions noted are these: with and without rat liver S9 metabolic activation; six concentrations up to 1 mg/mL. A general note: The Ames test uses bacterial strains that need an amino acid and regain growth without it when mutated back.
Another data set addresses T3, MMP-7 (Homo sapiens, UniProt P09237).
T3 sequence (P09237 95-267): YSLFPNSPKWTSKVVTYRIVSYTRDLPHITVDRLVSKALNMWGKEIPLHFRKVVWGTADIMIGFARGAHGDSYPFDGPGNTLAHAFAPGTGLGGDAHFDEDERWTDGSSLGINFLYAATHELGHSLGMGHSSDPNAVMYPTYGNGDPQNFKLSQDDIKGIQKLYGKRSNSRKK
The conditions noted are these: read-out: Ki, MMP-7.

Data set [11] deals with T4, MMP-14 (Homo sapiens, UniProt P50281). The conditions noted are these: read-out: Ki, MMP-14.
A further data set concerns the target T5, MMP-1 (Homo sapiens, UniProt P03956).
T5 sequence (P03956 100-469): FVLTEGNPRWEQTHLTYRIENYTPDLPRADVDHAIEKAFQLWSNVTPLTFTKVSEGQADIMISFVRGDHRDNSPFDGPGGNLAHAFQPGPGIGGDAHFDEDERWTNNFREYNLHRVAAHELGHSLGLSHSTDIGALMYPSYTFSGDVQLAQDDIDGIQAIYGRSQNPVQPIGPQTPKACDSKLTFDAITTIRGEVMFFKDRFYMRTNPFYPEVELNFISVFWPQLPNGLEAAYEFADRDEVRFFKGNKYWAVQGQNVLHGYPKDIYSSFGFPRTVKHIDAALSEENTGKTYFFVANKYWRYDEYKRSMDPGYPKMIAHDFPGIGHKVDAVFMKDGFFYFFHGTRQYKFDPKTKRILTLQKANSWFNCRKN
In words: biochemical. The conditions noted are these: read-out: inhibition of MMP-1.

Another data set has as its target MMP-3 (Homo sapiens, UniProt P08254). The experiment in a line: biochemical. The conditions noted are these: read-out: inhibition of MMP-3.
The target of data set [12] is T4, MMP-14. In words: biochemical.
The conditions of data set [13]: cited from earlier work.
The conditions of data set [14]: mice; cited from earlier work.
The conditions of data set [15]: rat; cited from earlier work.
A further data set concerns the target other MMPs. The conditions noted are these: background, earlier reports; cited from earlier work.
For data set [16], the target named is T1, human MMP-2. The conditions noted are these: read-out: Ki for human MMP-2; background, earlier reports; cited from earlier work.
In data set [17] the target is T2, human MMP-9. The conditions noted are these: read-out: Ki for human MMP-9; background, earlier reports; cited from earlier work.

Converted amounts (≈) assume the structure as drawn. Structures can show the parent of a compound that is named as a salt. Where two headings read alike, the source gives them in different places. A value given as a limit tells only on which side of the number the result lay.

T2 sequence (P14780 107-707 limits assumed): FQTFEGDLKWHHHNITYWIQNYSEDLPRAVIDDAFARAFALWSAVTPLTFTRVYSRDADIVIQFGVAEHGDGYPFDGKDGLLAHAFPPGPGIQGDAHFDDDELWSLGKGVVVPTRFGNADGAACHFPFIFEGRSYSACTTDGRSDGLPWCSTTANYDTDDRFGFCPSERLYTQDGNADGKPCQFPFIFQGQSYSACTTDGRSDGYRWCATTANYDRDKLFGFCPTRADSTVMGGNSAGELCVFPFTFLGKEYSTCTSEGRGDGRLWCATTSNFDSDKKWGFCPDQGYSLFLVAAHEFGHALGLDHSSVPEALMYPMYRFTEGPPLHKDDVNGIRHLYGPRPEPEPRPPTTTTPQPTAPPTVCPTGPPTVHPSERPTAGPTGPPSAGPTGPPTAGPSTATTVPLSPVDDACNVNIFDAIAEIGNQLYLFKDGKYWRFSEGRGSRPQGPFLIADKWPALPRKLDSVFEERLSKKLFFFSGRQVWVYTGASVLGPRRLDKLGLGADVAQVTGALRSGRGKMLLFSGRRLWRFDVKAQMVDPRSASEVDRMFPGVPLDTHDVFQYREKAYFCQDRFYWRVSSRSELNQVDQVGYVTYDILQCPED
Sequence of MMP-3 (P08254 100-477): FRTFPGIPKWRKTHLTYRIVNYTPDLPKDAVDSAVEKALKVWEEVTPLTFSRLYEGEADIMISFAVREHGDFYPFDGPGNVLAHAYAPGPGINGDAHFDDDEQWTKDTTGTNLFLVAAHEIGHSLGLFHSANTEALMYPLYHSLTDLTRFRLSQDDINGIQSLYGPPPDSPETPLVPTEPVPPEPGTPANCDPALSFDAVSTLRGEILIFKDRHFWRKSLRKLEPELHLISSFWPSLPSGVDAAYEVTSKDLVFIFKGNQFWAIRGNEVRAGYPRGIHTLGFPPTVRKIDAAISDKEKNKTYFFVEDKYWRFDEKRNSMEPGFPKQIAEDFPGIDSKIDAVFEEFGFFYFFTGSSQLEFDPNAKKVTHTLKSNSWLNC

In the case of `Nc1ccc(Oc2ccc(S(=O)(=O)CC3CS3)cc2)cc1` (stereo not shown) [Compound 6, 4-[4-((Thiiran-2-yl)methylsulfonyl)phenoxy]benzamine.HCl salt], in [1], the “Half-life in liver microsomes, Rat” value worked out at 23.4 ± 0.7 min. In addition, the “Half-life in liver microsomes, Mouse” value in [2] is given as 27.3 ± 2.1 min. Besides, the “Half-life in liver microsomes, Human” value in [3] is over 60 min.

On to `NCC(=O)Nc1ccc(Oc2ccc(S(=O)(=O)CC3CS3)cc2)cc1` (stereo not shown) [Compound 11a], for which the Ki on human MMP-2 [4] worked out at 440 ± 50 nM; at human MMP-9 [5], 3100 ± 300 nM. The koff is 0.00082 ± 9e-05 s⁻¹ at human MMP-2 [6] and 0.00065 ± 6e-05 s⁻¹ on human MMP-9 [7]. In addition, the kon was 1900 ± 600 M⁻¹ s⁻¹ on human MMP-2 [6] and 210 ± 40 M⁻¹ s⁻¹ on human MMP-9 [7]. In data set [8] (human blood, 37° C.), the “Half-life in human blood at 37° C.” value came to 27.1 ± 2.5 min. Besides, the “Half-life in human plasma at 37° C.” value in data set [9] (human plasma, 37° C.) stood at 32.4 ± 2.7 min.

Turning to `NCCCCC(N)C(=O)Nc1ccc(Oc2ccc(S(=O)(=O)CC3CS3)cc2)cc1` (stereo not shown) [Compound 11b], the dissociation rate constant (koff) on human MMP-2 [6] was found to be 0.00021 ± 9e-05 s⁻¹; on human MMP-9 [7], 0.00042 ± 7e-05 s⁻¹. Besides, the kon was 3400 ± 100 M⁻¹ s⁻¹ at human MMP-2 [6] and 270 ± 40 M⁻¹ s⁻¹ on human MMP-9 [7]. The solubility in the data set “Water solubility” (water, Water Solubility) was over 10000 µg/mL. Further, the results for the half-life in data set [8] and in data set [9] were 15.3 ± 1.9 min and 25.1 ± 5.2 min, respectively.

Take `NC(CCC(=O)O)C(=O)Nc1ccc(Oc2ccc(S(=O)(=O)CC3CS3)cc2)cc1` (stereo not shown) [Compound 11c]: on human MMP-2 [6], the dissociation rate constant (koff) came to 0.00018 ± 0.00016 s⁻¹ and the kon was 2500 ± 100 M⁻¹ s⁻¹. In addition, on human MMP-9 [7], the inhibitory constant (Ki) is 5400 ± 300 nM, the koff came out at 0.0012 ± 7e-05 s⁻¹ and the on-rate (kon) was found to be 2300 ± 100 M⁻¹ s⁻¹. Also, in “Water solubility” (water, Water Solubility), the solubility is over 10000 µg/mL. Moreover, the half-life in data set [8] came out at 27.9 ± 3.8 min. For the same molecule, the half-life in data set [9] amounted to 32.8 ± 3.6 min.

Consider `N=C(N)NCCCC(N)C(=O)Nc1ccc(Oc2ccc(S(=O)(=O)CC3CS3)cc2)cc1` (stereo not shown) [Compound 11d], for which, in the data set “Water solubility” (water, Water Solubility), the solubility is over 10000 µg/mL. The half-life in data set [1] is 59.3 ± 4.5 min; in [8], 25.4 ± 0.1 min; in data set [9] it was 29.5 ± 0.7 min; in data set [2] it was over 60 min; in data set [3] it was over 60 min. The “mutagenic potential (Ames mutagenicity assay)” value in data set [10] is “negative”.

`N=C(N)NCCCC(N)C(=O)NC(CCCNC(=N)N)C(=O)Nc1ccc(Oc2ccc(S(=O)(=O)CC3CS3)cc2)cc1` (stereo not shown) [Compound 11e] displayed a solubility in the data set “Water solubility” (water, Water Solubility) of over 10000 µg/mL. Also, the results for the half-life in data set [8] and in [9] were 5.9 ± 0.6 min and 11.8 ± 0.5 min, respectively.

In the case of `Cc1oc(=O)oc1COC(=O)Nc1ccc(Oc2ccc(S(=O)(=O)CC3CS3)cc2)cc1` (stereo not shown) [Compound 14], at human MMP-2 [6], the affinity, expressed as Ki, was 2400 ± 600 nM. Further, on human MMP-9 [7] (read-out: inhibition of MMP-9), the inhibition at 80 µM amounted to 37%. For the same molecule, the solubility in “Water solubility” (Water Solubility, in 100% water, solubility calculated using ε of MIK-G6 (p-N-acetyl SB-3CT)) is 1.01 µg/mL (≈ 0.00212 mM). The same molecule came in with a half-life in data set [9] of 1.6 ± 0.4 min.

As to `Nc1ccc(Oc2ccc(S(=O)(=O)CC3CS3)cc2)cc1O` (stereo not shown) [Compound 22, 2-Amino-5-(4-((thiiran-2-ylmethyl)sulfonyl)phenoxy)phenol], the Ki was found to be 78 ± 43 nM at human MMP-2 [4], 490 ± 110 nM on human MMP-9 [5], 116000 ± 13000 nM at MMP-7 and 260 ± 70 nM on MMP-14 [11]. Further, the koff on human MMP-2 [6] was 0.00014 ± 7e-05 s⁻¹; on human MMP-9 [7], 0.00053 ± 0.0001 s⁻¹; at MMP-14 [12] (read-out: koff, MMP-14), 0.000702 ± 0.000161 s⁻¹. The kon stood at 1700 ± 100 M⁻¹ s⁻¹ on human MMP-2 [6]; 1070 ± 120 M⁻¹ s⁻¹ at human MMP-9 [7]; 2690 ± 270 M⁻¹ s⁻¹ at MMP-14 [12] (read-out: kon, MMP-14). In addition, the inhibition at 300 µM came out at 11% at MMP-1 and 54% at MMP-3.

For the molecule `O=S(=O)(CC1CS1)c1ccc(Oc2ccccc2)cc1` (stereo not shown) [SB-3CT], in data set [13] (administration at 6 hours after ischemia), the histological damage result is listed as “potently blocked”. Also, in [13] (mouse transient ischemia), the infarct volume is on record as 30 % of control and the neurobehavioral scores result was “significantly improved”. Moreover, in data set [14], the “treatment of viral-induced vascular leakage” value was “effective”. The “treatment in model of subarachnoid hemorrhage” value in data set [15] was “effective”. For the same molecule, the “Ki values for other MMPs” value on other MMPs was “in the μM range at best”. Besides, in the data set “Water solubility” (water, aqueous solubility), the solubility was about 2.45 µg/mL (≈ 0.008 mM).

In the case of `O=S(=O)(CC1CS1)c1ccc(Oc2ccc(O)cc2)cc1` (stereo not shown) [p-hydroxylated metabolite], the figures for the Ki at human MMP-2 [16] and at human MMP-9 [17] were 6 ± 3 nM and 160 ± 80 nM, respectively.

As a reminder, the Ki is a dissociation constant, usually derived from enzyme kinetics or from competition with a known ligand. As a reminder, the koff is the rate constant with which the complex falls apart. As usually defined, the kon is a measure of how fast the partners come together. Usually solubility stands for the concentration that dissolves in the medium under given conditions. As usually defined, the half-life is the time in which the quantity being followed falls by half. A higher half-life goes with slow loss. The term inhibition denotes the percentage by which the read-out fell short of the control.
